According to patent US6133311A, “Method for preventing or treating elevated blood lipid level-related diseases by administering natural phenolic compounds” (priority 1998, dated 2000):

How the values were obtained:
[1] = system: LDL receptor in the liver; conditions: Farmer, J. A., et al. (1995), cited from earlier work; for plasma LDL cholesterol level: by enhancing the activity of LDL receptor in the liver
[2] = system: liver cells around the central vein; experiment: fatty liver: proportion of abnormal fat-containing cells in the liver of rabbits; type: in vivo, New Zealand White rabbits; conditions: for A: Proportion of abnormal fat-containing liver cells (grade): 1% cholesterol diet plus 0.1% compound (Lovastatin 1 mg/kg), mean of grades 1+ to 4+, Control 3.2 ± 0.3; for microscopic features of the liver: FIGS. 2B and 2C, around the central vein
Method: (§1) 30 three-month-old male New Zealand White rabbits (Yeonam Horticulture and Animal Husbandry College, Korea), each weighing about 2.5 to 2.6 kg, were raised under a condition of temperature 20+2° C., relative humidity 55±5%, and photoperiod 12L/12D. The rabbits were divided into 5 groups and 5 groups of rabbits were fed with 5 different diets, i.e., RC4 diet (Oriental Yeast Co., Japan) containing 1% cholesterol (Control group, 1); 1% cholesterol plus 1 mg/kg Lovastatin® (Merck, U.S.A.) (Lovastatin® group, 2); 1% cholesterol plus 0.1% tannin (3); 1% cholesterol plus 0.1% gallic acid (4); and 1% cholesterol plus 0.1% ellagic acid (5), respectively. RC4 diet comprises 7.6% moisture, 22.8% crude protein, 2.8% crude fat, 8.8% crude ash, 14.4% crude cellulose and 43.6% soluble nitrogen-free substances. Tannin, gallic acid and ellagic acid were purchased from Sigma Chemical Co. (St. Louis, Mo.).
(§2) The rabbits were fed for 6 weeks while being allowed free access to the diets and water.
(Step 5) Prevention of Hepatic Diseases

[3] = chemical analysis of blood of rabbits fed a high-cholesterol diet; type: in vivo, New Zealand White rabbits; conditions: for TG (triglyceride): Control 56 ± 38; for TC (total cholesterol): Control 1143 ± 260
Method: Effect of Tannin, Gallic acid or Ellagic acid in an Animal
(Step 1) Administration of tannin, gallic acid or ellagic acid to rabbits
as §1, §2
(Step 2) Chemical Analysis of Blood
After six weeks, the rabbits were anesthetized with an intramuscular injection of ketamine (50 mg/kg) in the femoral region and sacrificed. A blood sample was taken from the heart of each rabbit, allowed to stand for 2 hours and centrifuged at 3,000 rpm for 15 minutes and the supernatant serum was separated and stored in a freezer before use.
The chemical analysis of blood was carried out by employing a blood chemical analyzer (CIBA Corning 550 Express, USA) to determine the changes in GOT, GPT, γGTP, total cholesterol, HDL-cholesterol and triglyceride levels.

[4] = system: main artery (arterial endothelium); experiment: analysis for fatty streak in the main artery of rabbits; type: in vivo, New Zealand White rabbits; conditions: for Fatty streak (proportion of stained region to total arterial area): 1% cholesterol diet plus 0.1% compound (Lovastatin 1 mg/kg), Control 35 ± 14; for layer of macrophage-lipid complex on the arterial endothelium: FIGS. 1B and 1C, control: thick layer
Method: as §1, §2
(Step 3) Analysis for fatty streak in the main artery
The chest of each of the rabbits sacrificed in Step 2 was incised. The downward portion of the main artery from the site 1 cm above the aortic valve was cut out in a length of about 5 cm and the fat surrounding the main artery was removed. The main artery was incised in the middle along the longitudinal axis and pinned to a dish. The moist artery was photographed and, then, the staining of fatty streaks was carried out in accordance with the method of Esper, E., et al. (J. Lab. Clin. Med., 121, 103-110 (1993)) as follows.
A part of the incised main artery was washed three times with anhydrous propylene glycol for 2 min. and stained for 30 min. with a saturated solution of Oil Red O (ORO, Sigma Co.) dissolved in propylene glycol. Thereafter, the artery was washed twice with 85% propylene glycol for 3 min. to remove remaining staining solution and, then washed with physiological saline. The artery was photographed and the photograph was traced. The area of stained region (fatty streak region) was determined with an image analyzer (LEICA, Q-600, Germany) and its proportion (%) to the total arterial area was calculated.
FIGS. 1A, 1B and 1C show the arteries of the rabbits administered with 1% cholesterol (Control group); 1% cholesterol plus 1 mg/kg Lovastatin® (Lovastatin® group); 1% cholesterol plus 0.1% ellagic acid, respectively.

[5] = rabbits, 1% cholesterol diet plus 0.1% compound (Lovastatin 1 mg/kg), 6 weeks

Structure (SMILES) | plasma LDL cholesterol level [1] | A: Proportion of abnormal fat-containing liver cells (grade) ([2]; 6 weeks) | inhibition of the formation of fatty liver ([2]; 1% cholesterol diet, 6 weeks) | microscopic features of the liver [2] | effect on the liver function (adverse) ([3]; rabbit, in vivo) | TG (triglyceride) [3, 5] | TC (total cholesterol) [3, 5] | lipid metabolism and liver function ([3]; rabbits, 6 weeks) | Fatty streak (proportion of stained region to total arterial area) ([4]; 6 weeks) | plaque formation in the endothelium of the main artery ([4]; 6 weeks) | layer of macrophage-lipid complex on the arterial endothelium ([4]; 6 weeks) | deposition of macrophages on the arterial endothelium ([4]; blood cholesterol level high) | γGTP ([3]; rabbits, 1% cholesterol diet plus 0.1% compound (Lovastatin 1 mg/kg), 6 weeks, Control 4.2 ± 0.9) | GPT ([3]; rabbits, 1% cholesterol diet plus 0.1% compound (Lovastatin 1 mg/kg), 6 weeks, Control 65 ± 9) | GOT ([3]; rabbits, 1% cholesterol diet plus 0.1% compound (Lovastatin 1 mg/kg), 6 weeks, Control 77 ± 8) | side effects [1]
CCC(C)(C)C(=O)O[C@H]1C[C@@H](C)C=C2C=C[C@H](C)[C@H](CC[C@@H]3C[C@@H](O)CC(=O)O3)[C@H]21 [Simvastatin®] | may reduce the plasma LDL cholesterol level | – | – | – | – | – | – | – | – | – | – | – | – | – | – | –
O=c1oc2c(O)c(O)cc3c(=O)oc4c(O)c(O)cc1c4c23 [Ellagic acid, ellagic acid] | – | 2.7 | significantly inhibit the formation of fatty liver | almost all liver cells are of a normal shape | do not adversely affect on the liver function | 25 ± 10 mg/dL | 1000 ± 105 mg/dL | can improve | 9 ± 2% | inhibit | no or very thin layers of macrophage-lipid complex | strongly inhibit | – | – | – | –
CC[C@H](C)C(=O)O[C@H]1C[C@@H](C)C=C2C=C[C@H](C)[C@H](CC[C@@H]3C[C@@H](O)CC(=O)O3)[C@H]21 [Lovastatin®, reference compound] | may reduce the plasma LDL cholesterol level | 3.4 ± 0.5 | – | many cells containing excessive fat were observed around the central vein | – | 66 ± 17 mg/dL | 1210 ± 263 mg/dL | – | 5% | – | no or very thin layers of macrophage-lipid complex | – | 12.4 ± 0.8 IU/l | 73 ± 9 IU/l | 125 ± 19 IU/l | increase in creatine kinase in the liver and rhabdomyolysis
